Measurements published in patent publication US20220160652A1, “USE OF VITAMIN K IN COMBINATION WITH ANTICOAGULANTS” (KAYDENCE PHARMA AS, priority 2019, published 2022).
Entries after “also recorded” stand apart in the source; their conditions may differ.

Columns and labels:
[1] = system: VSMCs; test: Hypoxia (CoCl2) induced oxidative stress in VSMCs (DCFDA); format: cell-based
Method: This study was performed to determine whether intracellular oxidative stress in VSCMs is derived from mitochondrial dysfunction. To perform this study, VSMCs were incubated with cobalt chloride, a known stabilizer of HIF1a. Cobalt chloride binding to HIF1a prevents the degradation of HIF1a and thus results in a cellular hypoxia state. HIF1a has been implicated in cancer biology as well as a number of other pathophysiologies, specifically in areas of vascularization and angiogenesis, energy metabolism, cell survival, and tumor invasion. Under normal circumstances, after injury, HIF1a is degraded by the enzyme prolyl hydroxylase (PHD). The continued up-regulation of HIF1 a (mimicked by cobalt chloride) promotes tumor growth and metastasis through its role in initiating angiogenesis and regulating cellular metabolism to overcome hypoxia. Hypoxia promotes apoptosis in both normal and tumor cells. Additionally, hypoxia generates significant intracellular oxidative stress.
To perform the study, VSMCs (10,000 cells/well) were plated in a 96-well plate and left to adhere overnight. Next, the medium was changed to a medium supplemented with 50 μM CoCl2 for 19 hours. The next day, cells were washed and incubated for 1 hour with 20 μM DCFDA in the presence of a vehicle (solvent for CoCl2 and vitamin K2 (MK-7)/UQ10), 10 μM vitamin K2 (MK-7), or 10 μM UQ10 in medium. The medium was then changed to a medium supplemented with vehicle, vitamin K2 (MK-7)/UQ10, or CoCl2, and fluorescent was measured for 6 hours. Fluorescence intensity was normalized for cell count.

[2] = system: VSMCs; test: ATP increase, 24 h incubation (luminescence); format: cell-based; settings: 10 μM, p=0.014 for MK-7
Method: This study was performed to determine if vitamin K2 (MK-7) affects ATP generation. ATP is generated via glycolysis in the cytoplasm and via both the Krebs-cycle and oxidative phosphorylation in the mitochondria. ATP generation via glycolysis delivers only 2 ATP, whereas ATP generation in the mitochondria generates some 32 ATP.
(§1) To perform this study, VSCMs (5000 cells/well) were plated in 96-well plates and left to adhere overnight. Next, cells were incubated for 24 hours with either vehicle, vitamin K2 (MK-7) (10 μM), or UQ10 (10 μM). Hoechst was added to correct for cell number (1 μg/mL). Next, ATP was measured using mammalian lysis buffer for 5 minutes after which 50 μL ATP substrate solution was added to the wells and incubated for 10 minutes in a dark environment. Finally, the medium was transferred to a white plate to measure luminescence

[3] = system: VSMCs; test: ATP increase, 48 h incubation with CoCl2 comparison (luminescence); format: cell-based; settings: 10 μM, vs CoCl2 100 μM
Method: as §1, with “This study was performed to further investigate the origin of ATP production that is influenced by vitamin K2 (MK-7). To” for “To”, “for 48” for “for 24”, “vehicle, CoCl2 (100 μM),” for “vehicle,”, “5 minutes,” for “5 minutes”, “Finally,” for “Finally, the”, “measure luminescence.” for “measure luminescence”

[4] = system: Sprague-Dawley rats; test: T-TAS thrombus formation in whole blood of treated Sprague-Dawley rats; format: in vivo, rat
Method: This experiment was conducted in order to evaluate the effects of vitamin K2 (MK-7) on the anticoagulant activity of the new oral anticoagulants (NOAC) rivaroxaban and dabigatran using the T-TAS Total Thrombus-formation Analysis System. The T-TAS Total Thrombus-formation Analysis System is a microchip-based flow chamber system capable of evaluating whole-blood thrombogenicity. It is a useful tool in monitoring the efficacy of anticoagulants on thrombus formation and predicting the risk of bleeding complications. To perform the study, 45 wild-type male Sprague-Dawley and 45 transgenic male Ren-2 rats [TGR(mREN-2)27] at the age of 10-11 weeks at the beginning of the treatment period were purchased from animal facility IKEM-CEM Institute of Clinical and Experimental Medicine (Prague, Czech Republic). All animals in the experiment were housed in individually ventilated cages (2-3 rats per cage) and kept in the animal rooms of JCET at a relative humidity of 55±10%, a temperature of 22±2 ° C., and a light cycle of 7 AM to 7 PM. The rats had free access to food and water. After delivery, animals were randomly divided into 10 experimental groups (5 or 10 rats per group), as indicated below in Table 1. Four days before the start of the treatment, the first part of animals' body weight and food intake was measured in selected representative three cages (rats n=9) to calculate the appropriate amount of tested compounds required for addition to the diet to obtain the dosing indicated in Table 1. It was estimated that food intake was approximately 30 g of chow per rat per day. […] The body mass of the rats was measured at the beginning and at the end of treatment. At the beginning and at the end of treatment, the food intake per day was measured in representative group of animals to monitor the daily dosing of tested compounds (per kg of body mass). The thrombus formation in vitro was measured in whole blood using a microchip-based flow chamber system according to manufacturers' protocol (Total Thrombus-formation Analyser System, T-TAS; Fujimori Kogyo Co., Ltd., Tokyo, Japan). […]

[5] = system: transgenic Ren-2 rats [TGR(mREN-2)27]; test: T-TAS thrombus formation in whole blood of treated TGR (Ren-2) rats; format: in vivo, rat
Method: This experiment was conducted in order to evaluate the effects of vitamin K2 (MK-7) on the anticoagulant activity of the new oral anticoagulants (NOAC) rivaroxaban and dabigatran using the T-TAS Total Thrombus-formation Analysis System. The T-TAS Total Thrombus-formation Analysis System is a microchip-based flow chamber system capable of evaluating whole-blood thrombogenicity. It is a useful tool in monitoring the efficacy of anticoagulants on thrombus formation and predicting the risk of bleeding complications. […] Four days before the start of the treatment, the first part of animals' body weight and food intake was measured in selected representative three cages (rats n=9) to calculate the appropriate amount of tested compounds required for addition to the diet to obtain the dosing indicated in Table 1. […] The body mass of the rats was measured at the beginning and at the end of treatment. At the beginning and at the end of treatment, the food intake per day was measured in representative group of animals to monitor the daily dosing of tested compounds (per kg of body mass). The thrombus formation in vitro was measured in whole blood using a microchip-based flow chamber system according to manufacturers' protocol (Total Thrombus-formation Analyser System, T-TAS; Fujimori Kogyo Co., Ltd., Tokyo, Japan). […]

[6] = system: VSMCs; test: Warfarin-induced oxidative stress in VSMCs, warfarin concentration series (DCFDA); format: cell-based; settings: warfarin 10 to 100 μM, 6 hours
Method: It is known that the level of reactive oxygen species in cells can be measured by measuring the conversion of 2′,7′—dichlorofluorescein diacetate (DCFDA) to the fluorescent dye 2′,7′-dichlorofluorescein (DCF). The fluorescence generated by cells subjected to DCFDA is directly proportional to the amount of oxidized DCFDA to DCF.
In this study, vitamin K metabolism was blocked using the vitamin K-antagonist warfarin. The study was conducted to investigate whether interference with vitamin K metabolism would cause intracellular oxidative stress. To perform the study, VSMCs (10,000 cells/well) were plated in 96-well plates and left to adhere overnight. Next, cells were incubated for 1 hour with 20 μM DCFDA.
The medium was then changed to a medium supplemented with different concentrations of warfarin ranging from 10 to 100 μM, and fluorescence intensity was measured over 6 hours. Fluorescence was normalized for number of cells.

[Cl][Co][Cl] [CoCl2, cobalt chloride]
oxidative stress induced by cobalt chloride ([1]; 50 μM CoCl2): induces increased oxidative stress

COC1=C(OC)C(=O)C(C/C=C(\C)CC/C=C(\C)CC/C=C(\C)CC/C=C(\C)CC/C=C(\C)CC/C=C(\C)CC/C=C(\C)CC/C=C(\C)CC/C=C(\C)CCC=C(C)C)=C(C)C1=O [UQ10, reference compound]
hypoxia induced oxidative stress (counteraction) ([1]; 10 μM, after 50 μM CoCl2 for 19 hours): This effect was not found | ATP production in VSMCs compared to the vehicle [2]: only vitamin K2 (MK-7) increased ATP production in VSMCs significantly | ATP levels compared to CoCl2 [3]: significant higher ATP levels

O=C(NC[C@H]1CN(c2ccc(N3CCOCC3=O)cc2)C(=O)O1)c1ccc(Cl)s1 [Rivaroxaban, rivaroxaban, reference compound]
thrombus formation [4]: inhibited thrombus formation | thrombus formation [5]: also inhibited thrombus formation

CC(=O)CC(c1ccccc1)c1c(O)c2ccccc2oc1=O (stereo not shown) [warfarin]
intracellular oxidative stress caused by warfarin [6]: did cause intracellular oxidative stress; also recorded: results in increased intracellular oxidative stress
